Patent US6743413B1, “Suspension aerosol formulations” (3M Company, priority 1991, dated 2004)
Several values for one entry are separate records, joined by “and”; a condition that tells them apart may be missing. Identical values can stand only once.

Legend:
Assay type in all cases: physicochemical
[1] = Visual assessment of suspension formulations by time lapse photography 10 and 30 seconds after agitation; design: key: + = visually acceptable formulation; − = visually unacceptable formulation; ? = border line acceptable formulation
Experimental: (§1) For each of the micronized drug substances A-G set forth below, formulations were prepared at drug concentrations of 0.017 percent, 0.039 percent, 0.083 percent, 0.41 percent, and 1.6 percent by weight based on the total weight of the formulation (corresponding to 0.20 mg/mL, 0.50 mg/mL, 1.0 mg/mL, 5.0 mg/Ml, and 20 mg/mL, respectively). The formulations were prepared by dispersing micronized drug in HFC 134a in a sealed 15 mL clear PET vial using ultrasonic energy.
Using time lapse photography 10 and 30 seconds after agitation the formulations were assessed as follows: […]
The formulations were photographed using time lapse photography at 10 and 30 seconds post agitation and were assessed as follows: […]

[2] = Visual observation of suspension aerosol formulations (dispersion, flocculation, settling, creaming, suitability for metered dose inhaler); conditions: for homogeneity of suspension: Example 1: 1.6 percent in HFC 134a
Experimental: as §1
For each propellant mix the range of drug concentrations used in Example 1 was used.
BDP formulations were prepared at 0.070 percent by weight (1.0 mg/mL) in HFC 227 and at 0.38 percent by weight (5.0 mg/mL) in a 1:1 mixture of HFC 227 and HFC 134a.
Formulations of salmeterol free base at 0.02 percent by weight and 0.05 percent by weight were prepared in HFC 134a and in HFC 227 by placing the drug and 5 mL of glass beads into a 15 mL glass vial, crimping on a continuous valve, and adding the appropriate amount of propellant. The formulations were shaken on a paint shaker for 10 min in order to disperse the drug.
The vial was then shaken on a paint shaker, chilled, and the contents transferred to 10 mL vials fitted with the metered dose valve. […] Valve delivery was measured through the life of the formulations.

[3] = Respirable fraction (Anderson Cascade Impactor)
Experimental: In this assay the respirable fraction (the percent by weight of particles having an aerodynamic particle size of less than 4.7 microns) of the aerosol suspension is determined using an Anderson Cascade Impactor (available from Anderson Sampler Inc,; Atlanta, Ga.).
The aerosol vial to be tested is primed five times. The valve and valve stem are then cleaned with methanol and dried with compressed air. The aerosol vial and a clean, dry actuator are coupled to the glass throat attached to the top of the impactor using an appropriate firing adaptor. The calibrated vacuum pump (28.3 L/min) attached to the cascade impactor is turned on. A total of 20 sprays is delivered into the cascade impactor by repeatedly shaking the vial, seating it in the actuator and immediately delivering a single spray. The time between sprays is approximately 30 seconds. The cascade impactor is disassembled and each component is rinsed separately with diluent (55 parts methanol mixed with 45 parts of 0.1 percent aqueous phosphoric acid, v/v). Each solution is analyzed for pirbuterol acetate content using high performance liquid chromatography. The respirable fraction is calculated as follows:
% respirable=drug recovered from plates 3-7×100 total drug−drug recovered from recovered actuator and valve
In Examples 13-14 below respirable fraction is determined using the test method described above but using a diluent of 45 parts by volume methanol and 55 parts by volume of 0.1 percent aqueous phosphoric acid.

[4] = Example 1: drug concentration 0.017 % in HFC 134a alone
[5] = Example 1: drug concentration 0.039 % in HFC 134a alone
[6] = Example 1: drug concentration 0.083 % in HFC 134a alone
[7] = Example 1: drug concentration 0.41 % in HFC 134a alone
[8] = Example 1: drug concentration 1.63 % in HFC 134a alone
[9] = Example 4: 0.070 percent in HFC 227
[10] = Example 4: 0.38 percent in 1:1 HFC 134a/HFC 227
[11] = Example 5: 0.02 and 0.05 percent by weight in HFC 134a and in HFC 227

Row | Molecule | visual assessment of formulation [1, 4] | visual assessment of formulation [1, 5] | visual assessment of formulation [1, 6] | visual assessment of formulation [1, 7] | visual assessment of formulation [1, 8] | homogeneity of suspension [2] | further results
1 | O=C([O-])c1cc(=O)c2c(OCC(O)COc3cccc4oc(C(=O)[O-])cc(=O)c34)cccc2o1.[Na+].[Na+] [Disodium cromoglycate] | + | + | ? | − | − |  | homogeneity of formulation ([2]; Example 2: 0.015, 0.035 and 0.070 percent by weight in HFC 227, no surfactant): particularly homogenous; flocculation and sedimentation ([2]; Example 2: 0.35 percent and 1.4 percent in HFC 227, no surfactant): more rapid flocculation and sedimentation
2 | CCC(=O)OCC(=O)[C@@]1(OC(=O)CC)[C@@H](C)C[C@H]2[C@@H]3CCC4=CC(=O)C=C[C@]4(C)[C@@]3(Cl)[C@@H](O)C[C@@]21C [Beclomethasone dipropionate] | + | + | ? | − | + | particularly homogenous suspensions | dispersion [2, 9]: fairly well dispersed; time of flocculation after shaking [2, 9]: about 10 seconds; flocculation [2, 10]: flocculation was rapid; settling or creaming of flocs [2, 10]: the flocs neither settled nor creamed
3 | Pirbuterol acetate | + | + | ? | ? | + |  | suitability for metered dose inhaler ([2]; Example 9: 0.9 percent by weight pirbuterol acetate in HFC 227): deemed to be suitable for use in connection with a metered dose inhaler; suitability for metered dose inhaler ([2]; Example 10: 0.90 percent pirbuterol acetate, 0.23 percent oleic acid, 10.0 percent ethanol, HFC 227): deemed to be suitable for use in connection with a metered dose inhaler; respirable fraction (aerodynamic particle size less than 4.7 microns) ([3]; Example 11: 0.9 percent by weight pirbuterol acetate in HFC 227, duplicate, two vials): 59.1% and 54.8% and 53.9% and 49.3%; respirable fraction (aerodynamic particle size less than 4.7 microns) ([3]; Example 12: 0.9 percent pirbuterol acetate, 10 percent ethanol, HFC 227, duplicate, two vials): 34.9% and 32.5% and 31.7% and 31.3%; respirable fraction (aerodynamic particle size less than 4.7 microns) ([3]; Example 16: 0.9 percent pirbuterol acetate, 3 percent ethanol, HFC 227, two separate vials): 59.8% and 52.8%; respirable fraction (aerodynamic particle size less than 4.7 microns) ([3]; Example 17: 0.9 percent pirbuterol acetate, 5 percent ethanol, HFC 227, two separate vials): 48.2% and 43.5%
4 | CC(C)(C)NCC(O)c1ccc(O)c(CO)c1 (stereo not drawn) [Albuterol] | + | + | ? | − | + | particularly homogenous suspensions | 
5 | OCc1cc(C(O)CNCCCCCCOCCCCc2ccccc2)ccc1O (stereo not drawn) [salmeterol free base, salmeterol] |  |  |  |  |  |  | creaming [2, 11]: cream in both propellants, more so in HFC 227 than in HFC 134a; flocculation [2, 11]: Flocculation was also apparent; suitability for metered dose inhaler [2, 11]: deemed suitable for use in connection with a metered dose inhaler
6 | Albuterol sulfate | + | + | + | − | − |  | homogeneity of formulation ([2]; Comparative Example: CFC propellant mixes A and B (Propellants 11/114/12), no surfactant, 0.20, 0.50 and 1.0 mg/mL): acceptably homogenous; caking of drug on container walls ([2]; Comparative Example: CFC propellant mixes A and B versus HFC 134a counterparts of Example 1): more caking of drug on the walls of the container than their HFC 134a counterparts; flocculation ([2]; Comparative Example: CFC propellant mixes A and B, no surfactant, 5.0 and 20 mg/mL): relatively rapid flocculation; suitability for metered dose inhaler ([2]; Example 15: 0.37 percent albuterol sulfate, 0.10 percent sorbitan trioleate, 9.95 percent ethanol, 89.58 percent HFC 227): deemed to be suitable for use in connection with a metered dose inhaler; respirable fraction (aerodynamic particle size less than 4.7 microns) ([3]; Example 13: 0.4 percent by weight albuterol sulfate in HFC 227, duplicate, two vials): 69.3% and 60.6% and 64.0% and 63.0%; respirable fraction (aerodynamic particle size less than 4.7 microns) ([3]; Example 14: 0.40 percent albuterol sulfate, 0.50 percent oleic acid, 15.0 percent ethanol, HFC 227, duplicate, two vials): 28.0% and 22.0% and 27.1% and 28.8%
